The record followed here is patent US6462016B1 (Shiseido Company, Ltd., priority 1995, dated 2002).

pKd: −log10 of the molar value.

Assay [1] has as its system rat pancreas smooth muscle MILE cell. As to the kind of experiment: cAMP production in MILE cell. In kind it is cell-based. (Cyclic AMP is a second messenger, typically raised through Gs and lowered through Gi signalling.)
The next assay relates to NBf1 cell. The assay is described as follows: cAMP production in NBf1 cell. In kind it is cell-based, human.
Assay [2] concerns the target maxadilan receptor in crude membrane fraction from the rabbit spleen. As to the kind of experiment: Binding test (tissue): 125I-Max, rabbit spleen crude membrane fraction. The following applies: read-out: dissociation constant (Kd). On the procedure: (§1) Likewise, crude membrane fractions were prepared, respectively, from the brain, liver, pancreas, spleen, aorta and kidney of a rabbit, and the brains of a rat, a mouse, cattle and a human being.
(§2) After completion of the reaction, ^125I-Max bound to the membrane was separated by subjecting the resultant incubation matter to suction filtration using a GF/C glass filter (Whatman GF/C), and the radioactivity of the glass filter after being dried was measured by a γ-counter.

The next assay has as its system rabbit skin. It counts as in vivo.
Assay [3] concerns the target T1, maxadilan receptor in crude membrane fraction from the brain of a human being (Homo sapiens, UniProt P41586).
T1 construct: Likewise, crude membrane fractions were prepared; from tissue; host or cells: human brain, crude membrane fraction
T1 sequence (P41586 21-468): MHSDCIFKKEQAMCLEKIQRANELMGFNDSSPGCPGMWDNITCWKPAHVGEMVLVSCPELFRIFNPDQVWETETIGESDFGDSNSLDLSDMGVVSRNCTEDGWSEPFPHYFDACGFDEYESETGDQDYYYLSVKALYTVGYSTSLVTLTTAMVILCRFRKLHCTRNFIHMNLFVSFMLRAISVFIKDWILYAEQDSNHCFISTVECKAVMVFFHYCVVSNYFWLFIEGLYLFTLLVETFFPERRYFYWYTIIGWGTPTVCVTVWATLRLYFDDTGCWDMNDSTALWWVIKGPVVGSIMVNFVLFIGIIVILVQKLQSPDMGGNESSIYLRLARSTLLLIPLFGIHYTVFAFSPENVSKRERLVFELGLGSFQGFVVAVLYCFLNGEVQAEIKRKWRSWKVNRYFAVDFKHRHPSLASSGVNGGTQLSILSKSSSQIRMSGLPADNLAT
As to the kind of experiment: Binding test (tissue): 125I-Max, human brain crude membrane fraction. On the procedure:
as §1, §2

Assay [4] concerns the target T2, maxadilan receptor in crude membrane fraction from the rat brain (Rattus norvegicus, UniProt P32215).
T2 construct: Likewise, crude membrane fractions were prepared; from tissue; host or cells: rat brain, crude membrane fraction
T2 sequence (P32215 20-523): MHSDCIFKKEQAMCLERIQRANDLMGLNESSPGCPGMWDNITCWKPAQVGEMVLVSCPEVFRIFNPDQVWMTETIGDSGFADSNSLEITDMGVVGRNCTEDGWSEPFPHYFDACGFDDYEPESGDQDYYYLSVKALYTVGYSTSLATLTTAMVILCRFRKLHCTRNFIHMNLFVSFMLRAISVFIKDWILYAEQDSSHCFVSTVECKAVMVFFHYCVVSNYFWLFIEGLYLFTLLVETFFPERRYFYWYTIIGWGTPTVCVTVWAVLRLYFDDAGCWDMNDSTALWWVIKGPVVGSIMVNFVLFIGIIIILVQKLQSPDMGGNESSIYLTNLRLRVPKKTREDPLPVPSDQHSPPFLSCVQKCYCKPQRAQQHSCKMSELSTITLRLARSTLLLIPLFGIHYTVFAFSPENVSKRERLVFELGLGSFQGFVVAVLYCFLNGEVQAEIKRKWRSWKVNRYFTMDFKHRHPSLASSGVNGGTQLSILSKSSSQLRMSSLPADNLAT
The assay is described as follows: Binding test (tissue): 125I-Max, rat brain crude membrane fraction. On the procedure: as §1, §2

Assay [5] concerns the target T3, maxadilan receptor in crude membrane fraction from the cattle brain (Bos taurus, UniProt Q29627).
T3 construct: Likewise, crude membrane fractions were prepared; from tissue; host or cells: cattle brain, crude membrane fraction
T3 sequence (Q29627 38-513): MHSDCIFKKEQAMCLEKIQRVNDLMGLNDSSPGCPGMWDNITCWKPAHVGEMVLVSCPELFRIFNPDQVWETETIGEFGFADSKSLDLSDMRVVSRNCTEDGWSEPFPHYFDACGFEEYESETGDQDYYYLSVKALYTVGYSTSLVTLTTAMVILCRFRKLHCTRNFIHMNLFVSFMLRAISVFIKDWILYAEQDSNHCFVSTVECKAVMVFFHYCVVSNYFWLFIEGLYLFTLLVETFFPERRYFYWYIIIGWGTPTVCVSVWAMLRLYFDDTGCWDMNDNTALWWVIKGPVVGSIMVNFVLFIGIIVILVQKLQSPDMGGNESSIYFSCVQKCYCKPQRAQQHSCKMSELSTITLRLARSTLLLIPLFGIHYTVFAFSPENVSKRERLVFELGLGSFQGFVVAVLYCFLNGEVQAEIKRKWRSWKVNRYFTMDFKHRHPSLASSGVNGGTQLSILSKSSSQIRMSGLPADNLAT
As to the kind of experiment: Binding test (tissue): 125I-Max, cattle brain crude membrane fraction. As for the experimental part: as §1, §2

Assay [6] concerns rat adrenal medulla melanocytoma PC-12. In kind it is cell-based.
For assay [7], the target named is T4, maxadilan receptor in crude membrane fraction from the mouse brain (Mus musculus, UniProt P70205).
T4 construct: Likewise, crude membrane fractions were prepared; from tissue; host or cells: mouse brain, crude membrane fraction
T4 sequence (P70205 21-496): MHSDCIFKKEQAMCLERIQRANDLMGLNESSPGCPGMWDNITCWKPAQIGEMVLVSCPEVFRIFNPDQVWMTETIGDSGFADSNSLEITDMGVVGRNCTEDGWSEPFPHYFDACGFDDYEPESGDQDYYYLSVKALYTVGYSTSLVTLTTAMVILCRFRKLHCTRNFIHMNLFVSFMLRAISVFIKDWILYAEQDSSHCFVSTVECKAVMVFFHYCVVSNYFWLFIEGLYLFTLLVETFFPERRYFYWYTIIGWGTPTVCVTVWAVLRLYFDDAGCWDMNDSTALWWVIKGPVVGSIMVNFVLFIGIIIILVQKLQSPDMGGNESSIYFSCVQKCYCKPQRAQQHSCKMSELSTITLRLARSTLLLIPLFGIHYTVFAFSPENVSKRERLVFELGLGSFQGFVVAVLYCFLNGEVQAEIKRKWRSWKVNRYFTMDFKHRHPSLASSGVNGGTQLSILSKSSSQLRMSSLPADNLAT
As to the kind of experiment: Binding test (tissue): 125I-Max, mouse brain crude membrane fraction. As for the experimental part:
as §1, §2

In general, pKd refers to the Kd on a negative log10 scale, so that one unit is a factor of ten. Regarding maxadilan, the cAMP production result in assay [1] is on record as “likewise observed”; in the assay on NBf1 cell it was “likewise observed”; in assay [6] (PC-12 cell (1×10^6), 37° C. 10 minutes), “significantly promotes cAMP production”. Moreover, in assay [2], the pKd was 10.26. Moreover, in the assay with rabbit skin (50 μl dilutions at various concentrations intracutaneously into white rabbits, observed 30 minutes and 2 hours after injection), the Erythema formation activity was 10^−12. The “erythema formation action (in words)” value in the assay with rabbit skin (intracutaneous injection, rabbit) is reported as “superior to that of natural maxadilan”. For the same substance, the “specific binding to crude membrane fraction” value in assay [3] and in assay [5] was “specific binding of Max is also recognized” each time. The “maximum binding amount (Bmax)” value amounted to 68 fmol/mg in assay [4], 17 fmol/mg in assay [5] and 53 fmol/mg in assay [7]. In addition, the “time course of cAMP production after stimulation” value in assay [6] (PC-12 cell, 100 nM maxadilan, 37° C., various time) is on record as “conducted in an instant”.
